Laboratory results as given in PMC6443933, “Antagonizing Retinoic Acid-Related-Orphan Receptor Gamma Activity Blocks the T Helper 17/Interleukin-17 Pathway Leading to Attenuated Pro-inflammatory Human Keratinocyte and Skin Responses” (Frontiers in Immunology, 2019).
* marks the point of attachment. Biotin = O=C1N[C@H]2[C@H](CS[C@H]2CCCCC(=O)*)N1; Ahx = NCCCCCC(=O)O

Experiments:
[1] = system: STAT3 phosphorylation in Ba/F3 cells stably expressing the human IL-21 receptor; test: IL-21-induced phospho-STAT3 by flow cytometry; assay type: cell-based; conditions: 1 μM, 1 h pre-incubation
Protocol: To assess whether Cpd A affected STAT3 activity we induced STAT3 phosphorylation in Ba/F3 cells stably expressing the human IL-21 receptor (kindly provided by Dr. Max Warncke, Novartis). Cells were pre-incubated for 1 h with 10 μM of Cpd A or with 1 μM of the pan-JAK inhibitor CP690550. To induce STAT3 activity, the cells were stimulated for 1.5 h with recombinant human IL-21 (3 nM), followed by two washing steps using buffer containing PBS/0.5% BSA. The cells were fixed with 2% paraformaldehyde for 15 min at room temperature, washed and resuspended in ice-cold 90% methanol solution and stored overnight at −20°C. The samples were washed and stained for 1 h with an Alexa 647-labeled anti-phospho (pY705)-STAT3 antibody (BD biosciences). After two washes the cells were analyzed using a LSR Fortessa (BD Bioscience) and analyzed using FlowJo software (Tree Star).

[2] = system: HUT78 T-cells stably expressing full-length eGFP-RORγt; test: IL-17A / IL-2 production by RORγt transduced HUT78 T-cell line; assay type: cell-based, human; conditions: PMA plus anti-CD3, 48 h, ELISA
total human CD4+ T-cells = test: Th17 polarization of total CD4+ T-cells, cytokine ELISA; assay type: cell-based; conditions: total CD4+ T-cells, Th17 polarization 72 h, ELISA; read-out: IC50, IL-17A secretion
Protocol: Total, naive and memory CD4^+ T cells were isolated from Peripheral blood mononuclear cells (PBMCs) from healthy volunteers by density gradient centrifugation using Ficoll Paque (GE). Total, naive or memory CD4^+ T-cells were prepared by immunomagnetic separation using the respective CD4^+ T-cell enrichment kits resulting in untouched highly purified subsets (EasySep™, Stem Cell). Purity was assessed by flow cytometry and was between 95 and 98% for the total CD4^+ T-cells. The purity of naive (CD45RA^+CD45RO^−) and memory (CD45RA^−CD45RO^+) CD4^+T-cells ranged between 95 and 98%, respectively. For T-cell stimulation experiments, cells were treated as previously published ([44]). Briefly, T-cells were stimulated with plate-bound monoclonal antibodies against CD3 (1 μg/ml, clone OKT-3, BioXcell) and CD28 (1 μg/ml, clone CD28.2, BioLegend). For Th17 polarization assays, IL-6 (20 ng/ml), TGF-β1 (5 ng/ml), IL-1β (10 ng/ml), and IL-23 (10 ng/ml) were added. For Th1 polarization assays, IL-12 (10 ng/ml) and anti-IL-4 antibody (5 μg/ml), for Th2 polarizations, IL-4 (10 ng/ml) and anti-IFN-γ antibody (5 μg/ml) were added. For Th0 polarization assays, cells were only stimulated with CD3 and CD28 antibodies. Supernatants were collected after 3 or 7 days of incubation for total or naive/memory CD4^+ T-cell polarizations, respectively. Cytokine concentrations were quantified by ELISA according to the manufacturer's instructions (eBioscience or BioLegend).

NHEKs = test: IL-17A/TNFα spike-in in primary keratinocytes (NHEKs), qRT-PCR; assay type: cell-based, human; conditions: 0.75 μg/ml; similar to TNFα stimulation
Protocol: The HaCaT keratinocyte cell line was purchased from AddexBio and was maintained in RPMI 1640 medium supplemented with Glutamax, Penicillin/Streptomycin (all from Gibco) and 10% FCS (PAA). Normal primary human epidermal keratinocytes (NHEKs) were purchased from Lonza and PromoCell, respectively. Cells were cultured in Keratinocyte basal growth medium (KBM; Lonza) containing KGM2 growth supplements including insulin, human epidermal growth factor, bovine pituitary extract, hydrocortisone, epinephrine, transferrin, and gentamicin/amphotericin B (Lonza). HaCaT cells were incubated in a 96-well-microtiter plate (2 × 10^4 cells/well) with Th17 cytokine-containing supernatants obtained from total CD4^+ T-cells that were polarized for 72 h in the presence of anti-CD3/CD28 antibodies and a Th17 polarization cocktail as described above. […] Cytokine concentrations in supernatants were determined from representative experiments and they contained approximately 150 pg/ml or 600 pg/ml of IL-17 in 10 μM or in 0.13 nM treated samples, respectively. […]
Total RNA from human Th17 cells (6 × 10^5 cells), RORγt-RORE HUT78 cells (4 × 10^5 cells) and HaCaT cells (6 × 10^4 cells) was extracted using RNeasy kit including a DNAse I digestion step according to the manufacturer‘s protocol (Qiagen). […] Quantitative RT-PCR analysis was performed using a TaqManViiA7 (Applied Biosystems). […]

HaCaT keratinocytes = test: IL-17-driven HaCaT keratinocyte responses (Th17 supernatants or spiked cytokines), qRT-PCR; assay type: cell-based, human
Protocol: The HaCaT keratinocyte cell line was purchased from AddexBio and was maintained in RPMI 1640 medium supplemented with Glutamax, Penicillin/Streptomycin (all from Gibco) and 10% FCS (PAA). Normal primary human epidermal keratinocytes (NHEKs) were purchased from Lonza and PromoCell, respectively. Cells were cultured in Keratinocyte basal growth medium (KBM; Lonza) containing KGM2 growth supplements including insulin, human epidermal growth factor, bovine pituitary extract, hydrocortisone, epinephrine, transferrin, and gentamicin/amphotericin B (Lonza). HaCaT cells were incubated in a 96-well-microtiter plate (2 × 10^4 cells/well) with Th17 cytokine-containing supernatants obtained from total CD4^+ T-cells that were polarized for 72 h in the presence of anti-CD3/CD28 antibodies and a Th17 polarization cocktail as described above. […] Cytokine concentrations in supernatants were determined from representative experiments and they contained approximately 150 pg/ml or 600 pg/ml of IL-17 in 10 μM or in 0.13 nM treated samples, respectively. The TNF-α concentration was similar in supernatants exposed to low or high Cpd A concentrations and was 4 ng/ml. To study the impact of the IL-17 cytokine, IL-17 in the supernatants and in the spike-in cocktails was neutralized by a 0.5 h pre-incubation with an IL-17-specific antibody [0.75 μg/ml; Secukinumab (Cosentyx®, Novartis)]. All cultures were incubated in triplicates and after a 24 h incubation period, HaCaT cells (6 × 10^4 cells/sample) and NHEKs (1 × 10^5 cells/sample) were harvested and further processed for qRT-PCR analysis.
Total RNA from human Th17 cells (6 × 10^5 cells), RORγt-RORE HUT78 cells (4 × 10^5 cells) and HaCaT cells (6 × 10^4 cells) was extracted using RNeasy kit including a DNAse I digestion step according to the manufacturer‘s protocol (Qiagen). Frozen skin biopsies (8 mm punches) were resuspended in RLT buffer (Qiagen) containing 1% β-mercaptoethanol and homogenized using a Precellys-Cryolys device (Bertin Instruments) according to the manufacturer's instructions. cDNAs were prepared with the High Capacity cDNA Reverse Transcription Kit (Applied Biosystems). Quantitative RT-PCR analysis was performed using a TaqManViiA7 (Applied Biosystems). All runs were accompanied by the internal control gene human β-glucoronidase (Gus) (431088E). The samples were run in triplicate or in hexaplicate and normalized to Gus using the ΔΔCt method to provide arbitrary units representing relative expression levels. The following Taqman probes were used for RT-PCR (Thermo Scientific): RORC (Hs01076112_m1), IL17A (Hs00936345_m1), IL22 (Hs01574154_m1), IL26 (Hs00218189_m1), IL23R (Hs00332759_m1), CCR6 (Hs00218189_m1), NFKBIZ (Hs00355476_m), DEFB4A (Hs00823638_m1), IL36G (Hs00219742_m1), and CCL20 (Hs00355476_m1).

[3] = biological target: T1, human RORγt ligand binding domain (264-518), His6-tagged (human, UniProt P51449-1 264-518); test: FRET or BRET; TR-FRET in solution: 6 nM His6-tagged RORγt-LBD, 90 nM biotinylated RIP140 co-activator peptide, 0.45 nM Cy5-labeled streptavidin, 1.5 nM Europium-labeled anti-His6 antibody; 1 h incubation; emissions at 615 and 665 nm; displacement by the small molecules Cpd A or SR2211; conditions: both partners purified
T1 construct: also called RORγt-LBD; His6-tagged RORγt-LBD; source: produced at Novartis
T1 sequence (looked up): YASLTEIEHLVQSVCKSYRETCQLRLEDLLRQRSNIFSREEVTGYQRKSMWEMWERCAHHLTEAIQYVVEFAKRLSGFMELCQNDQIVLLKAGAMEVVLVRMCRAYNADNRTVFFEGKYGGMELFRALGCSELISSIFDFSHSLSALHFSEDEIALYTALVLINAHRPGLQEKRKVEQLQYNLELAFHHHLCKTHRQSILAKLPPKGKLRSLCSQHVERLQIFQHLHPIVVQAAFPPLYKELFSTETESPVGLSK

C[C@@H]1CCN(C(=O)CC#N)C[C@@H]1N(C)c1ncnc2[nH]ccc12 [CP690550, reference compound]
IL-21-induced STAT3 activity (pY705-STAT3) [1]: blocked

OC(c1ccc(-c2ccc(CN3CCN(Cc4ccncc4)CC3)cc2)c(F)c1)(C(F)(F)F)C(F)(F)F [SR2211, reference compound]
IC50 [2]: 0.257 ± 0.181 µM | IC50 (total human CD4+ T-cells): 1.48 ± 0.739 µM

Secukinumab: neutralizing IL-17-selective antibody (Cosentyx, Novartis)
NFKBIZ, DEFB4A, CCL20, IL36G gene expression in NHEKs (spike-in) (NHEKs): reduced gene expression | IL36G expression in HaCaT after IL-17 neutralization in Th17 supernatants (HaCaT keratinocytes; 0.75 μg/ml): moderate inhibition | IL-17A/TNFα-mediated gene expression in HaCaT (spike-in) (HaCaT keratinocytes; 0.75 μg/ml pre-incubation of cytokines, similar to TNFα-induced levels): significantly impaired | IL-17 activated transcripts in HaCaT after IL-17 neutralization in Th17 supernatants (HaCaT keratinocytes; 0.75 μg/ml, to levels seen with Th17 cytokines only): further downregulation

B1: biotinylated RIP140 derived co-activator peptide (peptide)
peptide: {Biotin-Ahx}-NSHQKVTLLQLLLGHKNEEN-NH2
SMILES: CC(C)C[C@H](NC(=O)[C@H](CC(C)C)NC(=O)[C@H](CC(C)C)NC(=O)[C@H](CCC(N)=O)NC(=O)[C@H](CC(C)C)NC(=O)[C@H](CC(C)C)NC(=O)[C@@H](NC(=O)[C@@H](NC(=O)[C@H](CCCCN)NC(=O)[C@H](CCC(N)=O)NC(=O)[C@H](Cc1c[nH]cn1)NC(=O)[C@H](CO)NC(=O)[C@H](CC(N)=O)NC(=O)CCCCCNC(=O)CCCC[C@@H]1SC[C@@H]2NC(=O)N[C@@H]21)C(C)C)[C@@H](C)O)C(=O)NCC(=O)N[C@@H](Cc1c[nH]cn1)C(=O)N[C@@H](CCCCN)C(=O)N[C@@H](CC(N)=O)C(=O)N[C@@H](CCC(=O)O)C(=O)N[C@@H](CCC(=O)O)C(=O)N[C@@H](CC(N)=O)C(N)=O
notes: also called RIP140 peptide; source: bought: Thermo Scientific
binding result [3]: binds
